Key:
[1] = biological target: T1, GST-LXRβ ligand-binding domain (Homo sapiens, UniProt P55055, INS174Q); assay: TR-FRETβ activity assay (NCoA3 coactivator peptide recruitment); format: biochemical; conditions: 1 μM 24(S)-25-epoxycholesterol as prestimulating agonist; inverse agonist unless *
T1 construct: amino acids 156-461; NP009052; made in house; host or cells: E. coli
T1 sequence (P55055 with tags, fused parts or gaps INS174Q limits assumed): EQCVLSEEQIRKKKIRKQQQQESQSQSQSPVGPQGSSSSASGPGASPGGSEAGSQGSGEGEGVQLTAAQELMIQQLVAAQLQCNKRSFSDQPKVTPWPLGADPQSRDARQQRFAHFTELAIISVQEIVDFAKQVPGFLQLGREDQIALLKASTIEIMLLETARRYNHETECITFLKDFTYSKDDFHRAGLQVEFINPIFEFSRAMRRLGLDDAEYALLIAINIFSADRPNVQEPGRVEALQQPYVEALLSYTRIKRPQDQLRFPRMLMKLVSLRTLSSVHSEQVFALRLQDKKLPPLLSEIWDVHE
Method: The tested compounds were usually dissolved, tested and stored as 20 mM stock solutions in DMSO. […] Sulfonyl acetic acid derivatives are shelf stable as solid at rt for long time as reported by Griesbrecht et al. (Synlett 2010:374) or Faucher et al. (J. Med. Chem. 2004; 47:18). TR-FRETβ Activity Assay Recombinant GST-LXRβ ligand-binding domain (LBD; amino acids 156-461; NP009052; SEQ ID NO:4) was expressed in E. coli and purified via gluthatione-sepharose affinity chromatography. N-terminally biotinylated NCoA3 coactivator peptide (SEQ ID NO:7) was chemically synthesized (Eurogentec). […] Finally, a detection mix was added containing anti GST-Tb cryptate (CisBio; 610SAXLB) and Streptavidin-XL665 (CisBio; 610SAXLB) as fluorescent donor and acceptor, respectively, as well as the coactivator peptide and LXRβ-LBD protein (SEQ ID NO:4). The reaction was mixed thoroughly, equilibrated for 1 h at 4° C. and vicinity of LXRβ and coactivator peptide was detected by measurement of fluorescence in a VictorX4 multiplate reader (PerkinElmer Life Science) using 340 nm as excitation and 615 and 665 nm as emission wavelengths. Assays were performed in triplicates. Final Assay Concentrations of Components: 240 mM KCl, 1 μg/μL BSA, 0.002% Triton-X-100, 125 pg/μL anti GST-Tb cryptate, 2.5 ng/μL Streptavidin-XL665, coactivator peptide (400 nM), LXRP protein ([…], i.e. 76 nM).

[2] = biological target: T2, LXRα full length (FL) (Homo sapiens, UniProt Q13133); assay: LXR Gal4 reporter transient transfection assay, mammalian two-hybrid, FL-M2H Gal4α; format: cell-based; conditions: HEK293 cells; inverse agonist unless *
T2 construct: the full length (FL) proteins of LXRα (amino acids 1-447); NP005684; expressed in transfected cells; host or cells: HEK293
T2 sequence (Q13133 1-447): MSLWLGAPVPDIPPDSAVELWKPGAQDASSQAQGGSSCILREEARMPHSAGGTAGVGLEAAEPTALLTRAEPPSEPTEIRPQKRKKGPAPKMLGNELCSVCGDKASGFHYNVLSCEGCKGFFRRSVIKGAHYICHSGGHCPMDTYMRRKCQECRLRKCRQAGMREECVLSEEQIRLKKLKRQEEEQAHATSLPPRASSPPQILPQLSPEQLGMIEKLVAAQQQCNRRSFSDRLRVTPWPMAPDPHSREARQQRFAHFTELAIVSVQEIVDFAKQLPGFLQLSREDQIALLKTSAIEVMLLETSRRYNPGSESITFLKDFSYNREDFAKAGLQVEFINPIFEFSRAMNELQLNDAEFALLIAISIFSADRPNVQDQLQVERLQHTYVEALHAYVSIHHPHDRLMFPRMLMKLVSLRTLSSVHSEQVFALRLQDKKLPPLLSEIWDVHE
Method: (§1) The tested compounds were usually dissolved, tested and stored as 20 mM stock solutions in DMSO. Since sulfonyl acetic acid derivatives tend to decarboxylate under these conditions, these stock solutions were prepared, tested and stored as 20 mM DMSO stock solutions containing 100 mM trifluoroacetic acid (5 equivalents). Sulfonyl acetic acid derivatives are shelf stable as solid at rt for long time as reported by Griesbrecht et al. (Synlett 2010:374) or Faucher et al. (J. Med. Chem. 2004; 47:18).
(§2) LXR Gal4 Reporter Transient Transfection Assays
(§3) LXRα and LXRβ activity status was determined via detection of interaction with coactivator and corepressor proteins in mammalian two-hybrid experiments (M2H). For this, via transient transfection the full length (FL) proteins of LXRα (amino acids 1-447; NP005684; SEQ ID NO:1) or LXRβ-(amino acids 1-461; NP009052; SEQ ID NO:2) or the ligand-binding domains (LBD) of LXRα (amino acids 155-447 SEQ ID NO:3) or LXR (amino acids 156-461; SEQ ID NO:4) were expressed from pCMV-AD (Stratagene) as fusions to the transcriptional activation domain of NFkB. As cofactors, domains of either the steroid receptor coactivator 1 (SRC1; amino acids 552-887; SEQ ID NO:5) or of the corepressor NCoR (amino acids 1906-2312; NP006302; SEQ ID NO:6) were expressed as fusions to the DNA binding domain of the yeast transcription factor GAL4 (from pCMV-BD; Stratagene). Interaction was monitored via activation of a coexpressed Firefly Luciferase Reporter gene under control of a promoter containing repetitive GAL4 response elements (vector pFRLuc; Stratagene). Transfection efficiency was controlled via cotransfection of constitutively active pRL-CMV Renilla reniformis luciferase reporter (Promega). HEK293 cells were grown in minimum essential medium (MEM) with 2 mM L-glutamine and Earle's balanced salt solution supplemented with 8.3% fetal bovine serum, 0.1 mM non-essential amino acids, 1 mM sodium pyruvate, at 37° C. in 5% CO2. 3.5×10^4 cells/well were plated in 96-well cell culture plates in growth medium supplemented with 8.3% fetal bovine serum for 16-20 h to—90% confluency. For transfection, medium was taken off and LXR and cofactor expressing plasmids as well as the reporter plasmids are added in 30 μL OPTIMEM/well including polyethylene-imine (PEI) as vehicle. Typical amounts of plasmids transfected/well: pCMV-AD-LXR (5 ng), pCMV-BD-cofactor (5 ng), pFR-Luc (100 ng), pRL-CMV (0.5 ng). Compound stocks were prepared in DMSO, prediluted in MEM to a total volume of 120 μL, and added 4 h after addition of the transfection mixture (final vehicle concentration not exceeding 0.2%). Cells were incubated for additional 16 h, lysed for 10 min in 1×Passive Lysis Buffer (Promega) and Firefly and Renilla luciferase activities were measured sequentially in the same cell extract using buffers containing D-luciferine and coelenterazine, respectively. Measurements of luminescence were done in a BMG-luminometer.

[3] = biological target: T3, LXRβ full length (FL) (Homo sapiens, UniProt P55055, INS174Q); assay: LXR Gal4 reporter transient transfection assay, mammalian two-hybrid, FL-M2H Gal4β; format: cell-based; conditions: HEK293 cells; inverse agonist unless *
T3 construct: the full length (FL) proteins of LXRα (amino acids 1-447); NP005684; NP009052; expressed in transfected cells; host or cells: HEK293
T3 sequence (P55055 with tags, fused parts or gaps INS174Q): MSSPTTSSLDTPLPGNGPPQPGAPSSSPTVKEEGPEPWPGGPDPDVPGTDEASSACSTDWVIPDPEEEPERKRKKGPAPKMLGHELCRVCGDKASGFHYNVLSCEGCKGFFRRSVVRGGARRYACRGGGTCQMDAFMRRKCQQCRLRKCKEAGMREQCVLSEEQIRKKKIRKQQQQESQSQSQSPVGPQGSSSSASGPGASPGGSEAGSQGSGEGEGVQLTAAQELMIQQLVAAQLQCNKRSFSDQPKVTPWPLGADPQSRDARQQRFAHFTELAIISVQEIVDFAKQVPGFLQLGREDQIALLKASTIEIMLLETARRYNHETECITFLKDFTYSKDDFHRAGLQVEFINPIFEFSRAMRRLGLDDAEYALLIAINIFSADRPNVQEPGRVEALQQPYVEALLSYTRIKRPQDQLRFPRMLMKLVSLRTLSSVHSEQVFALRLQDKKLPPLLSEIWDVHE
Method: as §1, §2, §3

| Structure (SMILES) | EC50 [1] | EC50 [2] | EC50 [3] |
| --- | --- | --- | --- |
| Cc1ccc2ccccc2c1C(=O)N(Cc1ccc(-c2cccc(S(=O)(=O)CC(=O)O)c2)cc1)Cc1ccc(C#N)o1 [27/2] | 1000 to 10000 nM | 1000 to 10000 nM | 1000 to 10000 nM |
| Cc1ccc2ccccc2c1C(=O)N(Cc1ccc(-c2cccc(S(=O)(=O)CC(=O)O)c2)cc1)Cc1ccc(C(F)(F)F)[nH]1 [27/3] | 1000 to 10000 nM | 1000 to 10000 nM | 1000 to 10000 nM |
| Cc1ccc2ccccc2c1C(=O)N(Cc1ccc(C(F)(F)F)o1)C1COc2cc(-c3cccc(C(C)(C)C(=O)O)c3)ccc21 (stereo not drawn) [27/4] | > 10000 nM | 100 to 1000 nM | 100 to 1000 nM |
| Cc1ccc2ccccc2c1C(=O)N(Cc1ccc(-c2cccc(C(C)(C)C(=O)O)c2)cc1)C1CCc2ccc(C(F)(F)F)cc21 (stereo not drawn) [27/5] | 100 to 1000 nM | < 100 nM | < 100 nM |
| Cc1ccc2ccccc2c1C(=O)N(Cc1ccc(C(F)(F)F)o1)Cc1c(F)cc(-c2cccc(C(C)(C)C(=O)O)c2)cc1Cl [27/6] | < 100 nM | < 100 nM | < 100 nM |
| CC(c1cccc2ncccc12)N(Cc1ccc(-c2cccc(S(=O)(=O)CC(=O)O)c2)cc1)Cc1ccc(C(F)(F)F)o1 (stereo not drawn) [27/8] | 1000 to 10000 nM | 100 to 1000 nM | 100 to 1000 nM |
| Cc1ccc2ccccc2c1C(=O)N(Cc1ccc(-c2cccc(C(C)(C)CC(=O)O)c2)cc1)Cc1ccc(C(F)(F)F)o1 [27/9] | 100 to 1000 nM | < 100 nM | < 100 nM |
| COC(C)(C(=O)O)c1cccc(-c2ccc(CN(Cc3ccc(C(F)(F)F)o3)C(=O)c3c(C)ccc4ccccc34)cc2)c1 (stereo not drawn) [27/11] | 1000 to 10000 nM | < 100 nM | < 100 nM |
| CC(C)(C(=O)O)c1cccc(-c2ccc(CN(Cc3ccc(C(F)(F)F)o3)C(=O)c3cccc4ncncc34)cc2)c1 [27/13] | 1000 to 10000 nM | 100 to 1000 nM | < 100 nM |
| CC(C)(C(=O)O)c1cccc(-c2ccc(CN(Cc3ccc(C(F)(F)F)o3)C(=O)c3cccc4cnncc34)cc2)c1 [27/14] | 100 to 1000 nM | 1000 to 10000 nM | 100 to 1000 nM |
| CC(C)(C(=O)O)c1cccc(-c2ccc(CN(Cc3ccc(C(F)(F)F)o3)Cc3cccc4c3CCOC4)cc2)c1 [27/15] | 100 to 1000 nM | < 100 nM | < 100 nM |
| CC(C)(C(=O)O)c1cccc(-c2ccc(CN(Cc3ccc(C(F)(F)F)o3)Cc3cccc4c3CCCO4)cc2)c1 [27/16] | 100 to 1000 nM | < 100 nM | < 100 nM |

The remaining lines, values ahead:

| EC50 [1] | EC50 [2] | EC50 [3] | Structure (SMILES) |
| --- | --- | --- | --- |
| 100 to 1000 nM | < 100 nM | < 100 nM | CN(C)c1ncc(CN(Cc2ccc(-c3cccc(C(C)(C)C(=O)O)c3)cc2)Cc2ccc(C(F)(F)F)o2)c2ccccc12 [27/18] |
| 100 to 1000 nM | < 100 nM | < 100 nM | COc1ncc(CN(Cc2ccc(-c3cccc(C(C)(C)C(=O)O)c3)cc2)Cc2ccc(C(F)(F)F)o2)c2ccccc12 [27/19] |
| 100 to 1000 nM | < 100 nM | < 100 nM | Cc1ccc2ccc(C)c(CN(Cc3ccc(-c4cccc(C(C)(C)C(=O)O)c4)cc3)Cc3ccc(C(F)(F)F)o3)c2c1 [27/20] |
| 100 to 1000 nM | < 100 nM | < 100 nM | Cc1ccc2c(CN(Cc3ccc(-c4cccc(C(C)(C)C(=O)O)c4)cc3)Cc3ccc(C(F)(F)F)o3)c(C)ccc2c1 [27/21] |
| 100 to 1000 nM | 100 to 1000 nM | < 100 nM | Cc1c(CN(Cc2ccc(-c3cccc(C(C)(C)C(=O)O)c3)cc2)Cc2ccc(C(F)(F)F)o2)c2ccccc2[nH]c1=O [27/22] |
| 1000 to 10000 nM | 100 to 1000 nM | < 100 nM | COc1ccc2c(CN(Cc3ccc(-c4cccc(C(C)(C)C(=O)O)c4)cc3)Cc3ccc(C(F)(F)F)o3)cc(C)cc2c1 [27/24] |
| 1000 to 10000 nM | 100 to 1000 nM | < 100 nM | Cc1ccc2ccc(C(N)=O)cc2c1CN(Cc1ccc(-c2cccc(C(C)(C)C(=O)O)c2)cc1)Cc1ccc(C(F)(F)F)o1 [27/25] |

Source: patent publication US20200131144A1, “AMINE OR (THIO)AMIDE CONTAINING LXR MODULATORS” (Phenex-FXR GmbH, priority 2017, published 2020)
